Publication PMC12463534, “Exploring the Anticancer Properties of 4-Phenylthiazole-Based Ru(II) and Os(II) Metallacycles Featuring 1-Methylimidazole as N-Donor Functionality” (Bioinorganic Chemistry and Applications, 2025)

Legend:
[1] = system: SW480 colon adenocarcinoma cells; experiment: MTT assay, inhibition of cancer cell growth, SW480; conditions: read-out: 50% inhibitory concentration SW480, exposure time 96 h
Protocol: (§2) CH1/PA-1 ovarian teratocarcinoma cells (CH1, RRID: CVCL_4992, provided by L. R. Kelland, CRC Center for Cancer Therapeutics, Institute of Cancer Research, Sutton, UK; confirmed by STR profiling as PA-1 ovarian teratocarcinoma cells at Multiplexion, Heidelberg, Germany), SW480 colon adenocarcinoma (RRID: CVCL_0546), and A549 lung adenocarcinoma cells (NCI-H2618, RRID: CVCL_A549; both cell lines were obtained from the American Type Culture Collection (ATCC), Manassas, VA, USA) were grown as adherent cultures in 75-cm^2 culture flasks (Starlab, Hamburg, Germany) by using minimal essential medium (MEM) supplemented with 1 mM sodium pyruvate, 4 mM L-glutamine, 1% (v/v) nonessential amino acids from 100-fold stock (all purchased from Sigma-Aldrich), and 10% heat-inactivated fetal bovine serum (Serana, Pessin, Germany).
(§3) The 3-(4,5-dimethylthiazol-2-yl)-2,5-diphenyl-2H tetrazolium bromide (MTT, Acros Organics, Geel, Belgium) assay was used to detect the cytotoxicity of the compounds after 96-h incubation. For this purpose, cells were harvested from culture flasks by trypsinization, seeded in 100-μL aliquots into 96-well microculture plates (Starlab, UK) in densities of 1 × 10^3 (CH1/PA-1), 2 × 10^3 (SW480), and 3 × 10^3 (A549) cells per well and incubated for 24 h prior to exposure to the test compounds. Stock solutions of test compounds were prepared in DMF, which were then diluted in MEM (not to exceed a final content of 0.5% v/v of organic solvent in the test plates), and serial dilutions were added in aliquots of 100 μL per well. […] After incubation for 4 h, the medium/MTT mixtures were removed, and the produced formazan crystals were dissolved in 150 μL DMSO per well. Optical densities at 550 nm were measured spectrophotometrically with a ELx808 Absorbance Microplate Reader (Bio-Tek, Winooski, VT, USA) by using a reference wavelength of 690 nm to correct for unspecific absorption.

[2] = system: HCT116 multicellular tumor spheroids (3D); experiment: Resazurin assay, HCT116 3D multicellular tumor spheroids; conditions: read-out: IC50 3D; HCT116 3D spheroids, resazurin assay, 96 h exposure
Protocol: Both models were investigated by the fluorimetric resazurin assay after 96-h exposure.
HCT116 colorectal carcinoma cells (RRID:CVCL_0291 from ATCC) were cultivated in McCoy's 5A medium, supplemented with 10% heat-inactivated fetal bovine serum and 4 mM L-glutamine.
For 2D experiments, HCT116 cells were harvested from culture flasks by trypsinization, seeded in 100-μL aliquots into 96-well microculture plates (CytoOne, TC-treated, from Starlab) in densities of 2 × 10^3 cells per well, and incubated for 24 h prior to exposure to the test compounds. […] Stock solutions of test compounds were prepared in DMF, which were then diluted in McCoy's 5A-supplemented medium (not to exceed a final content of 0.5% v/v of organic solvent in the test plates), and serial dilutions were added in aliquots of 100 μL per well. […] After incubation for 4 h, fluorescence was measured with a microplate reader (Bio-Tek, SynergyHT) at a wavelength of 530 nm, additionally using a reference wavelength of 620 nm.

[3] = Solubility in 1% DMF/PBS
Description: Solubility is an important factor for the application of metallodrugs. DMF was used as solubilizer to allow comparison to the respective chlorido complexes where the usage of DMSO would lead to stable DMSO adducts.
(§1) As the coordinated p-cym and leaving groups are present in all synthesized complexes, we focused on the differently substituted 4-phenylthiazoles for estimated changes in lipophilicity.

[4] = Ruthenium levels in tissues by ICP-MS; assay type: in vivo; conditions: CT26-bearing mice, 2 h after last injection
Protocol: Tumor-specific organs and blood serum, harvested from the other animals 2 h after the last injection (Figure 5(c)), were measured for the average ruthenium content by inductively coupled plasma mass spectrometry (ICP-MS) of tissue homogenates.
CT26 cells (5 × 10^5 cells in 50-μL serum-free medium) were injected subcutaneously (s.c.) into the right flank of 8–16-week-old BALB/c mice (Envigo Laboratories, San Pietro Al Natisone, Italy). After 3 days, therapy treatment started on five consecutive days for 2 weeks. Animals were treated i.p. with 50 mg/kg 1c and 3c (all dissolved in 10% DMSO in 0.9% NaCl, 12 mice per group). The solvent control animals received 10% DMSO in 0.9% NaCl. Every day, the animals were monitored for the overall health conditions and tumor size was measured regularly by caliper measurement. Tumor volumes (mm^3) were calculated using following formula: length × width^2/2. […] Tumor growth and possible side effects of the treatment were evaluated by daily recording the tumor size by caliper measurement and parameters of the animal's overall health conditions. In the tissue sampling arm at the experiment, the mice were sacrificed by cervical dislocation 2 h after the last treatment. Tumors as well as organs were collected. Additionally, blood was drawn and incubated for 25 min to allow blood clotting. To isolate serum and blood pellets, the blood was centrifuged for 10 min at 17,900 g at room temperature. The supernatant characterized as serum was transferred to a new tube and centrifuged again to remove residual red blood cells. All collected samples were stored at −20°C and further processed for platinum measurements via ICP-MS.
The ruthenium concentration was determined by ICP-MS analysis. Ruthenium and rhenium standards were derived from LabKings (LabKings B.V., The Netherlands). The total ruthenium content was determined with a quadrupole-based ICP-MS instrument Agilent 7800 (Agilent Technologies, Tokyo, Japan) equipped with the Agilent SPS 4 autosampler (Agilent Technologies, Tokyo, Japan) and a MicroMist nebulizer at a sample uptake rate of approximately 0.2 mL·min^−1. […] Argon was used as plasma gas (15 L·min^−1) and as carrier gas (∼1.08 L·min^−1). The integration time was set to 0.1 s, and measurements were performed in 6 replicates with 100 sweeps. Rhenium served as internal standard for ruthenium.

[5] = system: CH1/PA-1 ovarian teratocarcinoma cells; experiment: MTT assay, inhibition of cancer cell growth, CH1/PA-1; conditions: read-out: 50% inhibitory concentration CH1, exposure time 96 h
Protocol: as §2, §3

[6] = system: HCT116 colorectal cancer cell line (2D); experiment: Resazurin assay, HCT116 2D (monolayer) culture; conditions: read-out: IC50 2D, resazurin assay, 96 h exposure
[7] = system: A549 lung adenocarcinoma cells; experiment: MTT assay, inhibition of cancer cell growth, A549; conditions: read-out: 50% inhibitory concentration A549, exposure time 96 h
Protocol: as §2, §3

[8] = system: SW480 cancer cells; experiment: Cellular accumulation (ICP-MS) in SW480 cells; conditions: 50 μM, 0.5% DMF in MEM, SW480, exposure time 2 h
Protocol: as §1
Cellular accumulation of the compounds was studied based on a method described previously with modifications. 1.8 × 10^5 SW480 cells per well were seeded in aliquots of 1 mL of complete MEM (see above) into 12-well plates (CytoOne, tissue culture treated, Starlab) and incubated at 37°C for 24 h. Then, cells were exposed for 2 h at 37°C to 50 μM solutions of the test compounds (containing 0.5% DMF) in fresh 0.5 mL of complete MEM upon exchange of the medium. Afterward, cells were washed three times with 1 mL PBS per well, lysed with 0.4 mL sub-boiled HNO3 per well for 1 h at room temperature, and 0.3 mL of each sample was diluted with 7.7 mL Milli-Q water. Adsorption/desorption controls were prepared in the same manner in cell-free wells. Ruthenium content was quantified by ICP-MS using an ICP-quadrupole MS Agilent 7800 instrument (Agilent Technologies, Waldbronn, Germany) as described previously.

[9] = Conditional stability constant of Ru-MeIm bond and speciation modelling (pH-dependent UV-vis, HypSpec); assay type: physicochemical
Protocol: Calculation was done with HypSpec software based on the pH-dependent UV–vis spectra recorded after 3 days (Figures S27, S28). With the help of the computed constant, it was possible to model the speciation at various concentrations. […] At pH 6.0, a condition more characteristic of solid tumor tissues, the MeIm ligand tends to dissociate to a greater extent and only 44% and 76% of the original complex is found in solution at 0.1 and 1 μM concentrations, respectively.
The average water ionization constant, pKw, was determined as 13.76 ± 0.01, which is in good agreement with literature data. The initial volume of the samples was 15.0 mL. The complex concentration was 100 or 157 μM at an ionic strength of I = 0.1 M (KCl). Samples were degassed by bubbling purified argon through them for about 10 min prior to the measurements, and the inert gas was also passed over the solutions during the titrations. 0.70-mL batch samples were collected between pH 1 and 11; these samples were kept in dark, and after 2 and 3 days, their pH was remeasured, and the UV–vis spectra were recorded as well. Only small differences were observed between the 2- and 3-day spectra, and always, the 3-day samples were used for further evaluation. The conditional stability constant for 3c was calculated based on the following equilibrium: [RuCym(N,C)(Z)]^(1+n) + MeIm ⇌ [RuCym(N,C) (MeIm)]^+ + Z^n; (Z = Cl^– or H2O; n = −1 or 0). The calculation was done with the HypSpec software. […] The calculated stability constant is a conditional value and applies for I = 0.1 M KCl ionic strength.

Structure (SMILES): Cc1ccc(C(C)C)cc1.Cn1cc[n+]([Ru-]2[c]3cc(S(C)(=O)=O)ccc3-c3csc[n+]32)c1.O=[N+]([O-])[O-] [Compound 3c, [((3-κN)-1-Methylimidazole)(4-(4-(methylsulfonyl)phenyl)thiazolato-κN,κC2′)(η^6-p-cymene)ruthenium(II)] Nitrate]
- IC50 [1]: > 200 µM
- IC50 [2]: 226 ± 36 µM
- Solubility [3]: 24.6 mM
- Ruthenium level in liver [4]: ~20 mg/kg
- Ruthenium level in tumor [4]: ~1 mg/kg
- IC50 [5]: 102 ± 11 µM
- IC50 [6]: > 200 µM
- IC50 [7]: > 200 µM
- Cellular accumulation, fg Ru/cell [8]: 4.6 ± 0.6 fg Ru/cell
- Conditional stability constant logK′ of Ru(p-cym)-MeIm bond ([9]; I = 0.1 M KCl, 25°C, UV-vis spectra after 3 days, HypSpec): 8.31 ± 0.03
- Original complex found in solution ([9]; pH 6.0, 0.1 μM complex, modelled from logK′): 44%
- Original complex found in solution ([9]; pH 6.0, 1 μM complex, modelled from logK′): 76%
- Intact (nondissociated) complex fraction ([9]; pH 7.4, 0.1 μM complex, modelled from logK′): 78%
- Stability of complex by modelled speciation ([9]; pH 7.4, 1 μM and 10 μM complex concentrations): stable
